Laboratory results published in patent US8623912B2, “Fostriecin derivatives and the pharmaceutical uses thereof” (priority 2008, dated 2014).
Like-named read-outs stand apart in the source and are kept apart here.

Key:
[1] = tested on: NCI-H460 (human Lung Cancer); assay: Celltiter 96 cell proliferation assay (modified MTT method), NCI-H460; type: cell-based; conditions: read-out: IC50 NCI-H460 (human Lung Cancer)
Protocol: (§1) The anti-tumor activities of the compounds of thiophosphorylated FST (A) and methyl phosphorylated FST (B) of the present invention to various tumor cell lines of HL-60, CCRD-CEM and NCI-H460 were determined by Celltiter 96 cell proliferation assay kit (modified MTT method) manufactured by Promega company. Onto a 96-well plate, total volume 50 ul/well was added with about 5-7.5×10^3 cells/well, and cultured for 24 hours, followed by addition of 50 ul of the compounds (0.001 nM˜1000 nM) to each well, and cultured for 72 hours. Subsequently, 15 ul of MTT staining solution was added to the well, temperature was kept for 4 hours, the thus formed precipitate was then dissolved with 100 ul lysis buffe/stop solution. After 1 hour, the content in the well was mixed homogeneously with a shaker, and the abosorption value (OD 570 nm) of each well was measured by enzyme-labeled instrument (Molecular Devices). The data was analyzed with Kaleida Graph Program, and the IC50 value (the concentration of the compound at which the growth of 50% of the cell is inhibited) was calculated.

[2] = tested on: CCRF-CEM (human leukemia); assay: Celltiter 96 cell proliferation assay (modified MTT method), CCRF-CEM; type: cell-based; conditions: read-out: IC50 CCRF-CEM (human leukemia)
Protocol: as §1

[3] = tested on: alkaline phosphatase; type: in vitro ADME; conditions: FIG. 2; for stability under the action of alkaline phosphatase: 75 mM Tris Buffer pH 8.3, 5 mM MgCl2, 37° C., 2-5 hours; for formation of dephosphorylated FST under alkaline phosphatase: conditions of Example 1
Protocol: Reaction condidtions: FST was dissolved in a solution of 75 mM Tris Buffer (pH 8.3) and 5 mM MgCl2 to obtain a 20 mM FST solution, to each milligram of Fostriecin was added 1 to 1.5 units of alkaline phosphatase, enzymolysis was performed at 37° C. for 2-5 hours.
Thiophosphorylated FST(A) and methyl phosphorylated FST(B) were subjected to hydrolysis of alkaline phosphatase under the reaction condidtions as described in Example 1.

[4] = tested on: HL60 (human leukemia); assay: Celltiter 96 cell proliferation assay (modified MTT method), HL60; type: cell-based; conditions: read-out: IC50 HL60 (human leukemia)
Protocol: as §1

[5] = molecular target: T1, PP4 (Homo sapiens, UniProt P60510); conditions: cited from earlier work
T1 sequence (P60510 1-307): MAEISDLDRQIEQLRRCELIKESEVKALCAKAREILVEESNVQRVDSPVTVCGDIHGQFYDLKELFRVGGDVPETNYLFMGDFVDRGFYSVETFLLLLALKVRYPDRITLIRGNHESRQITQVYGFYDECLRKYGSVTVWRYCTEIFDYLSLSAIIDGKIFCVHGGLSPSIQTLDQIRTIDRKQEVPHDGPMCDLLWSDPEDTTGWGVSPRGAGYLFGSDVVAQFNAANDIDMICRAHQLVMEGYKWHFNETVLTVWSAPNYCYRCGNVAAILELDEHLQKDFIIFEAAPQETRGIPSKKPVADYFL

[6] = molecular target: protein phophatase PP2A (Homo sapiens, UniProt P67775); conditions: cited from earlier work
Sequence of protein phophatase PP2A (P67775 whole entry): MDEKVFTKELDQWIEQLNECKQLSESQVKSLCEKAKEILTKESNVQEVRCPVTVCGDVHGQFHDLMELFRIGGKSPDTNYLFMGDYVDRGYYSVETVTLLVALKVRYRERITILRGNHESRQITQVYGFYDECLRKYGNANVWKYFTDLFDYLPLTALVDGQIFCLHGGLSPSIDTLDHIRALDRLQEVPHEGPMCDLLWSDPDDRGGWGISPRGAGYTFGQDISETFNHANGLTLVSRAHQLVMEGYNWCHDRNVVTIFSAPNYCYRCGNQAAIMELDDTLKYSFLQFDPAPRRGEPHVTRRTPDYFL

[7] = NCI-H460, 72 hours culture with compound, MTT, OD 570 nm
[8] = 72 hours culture with compound, MTT, OD 570 nm
[9] = HL-60, 72 hours culture with compound, MTT, OD 570 nm

C[C@@](O)(/C=C/[C@H]1CC=CC(=O)O1)C(C[C@@H](O)\C=C/C=C\C=C\CO)OCP(=O)(O)O (stereo partly drawn) [B]
IC50 [1, 7]: 16.3 µM
IC50 [2, 8]: 14 µM
stability under the action of alkaline phosphatase [3]: relatively stable
formation of dephosphorylated FST under alkaline phosphatase [3]: no dephosphorylated FST was formed
IC50 [4, 9]: 12.5 µM

C[C@@](O)(/C=C/C1CC=CC(=O)O1)C(C[C@@H](O)\C=C/C=C\C=C\CO)OP(O)(O)=S (stereo partly drawn) [A]
IC50 ([1]; NCI-H460, 72 h): 13.2 µM
IC50 ([2]; 72 h): 9.6 µM
stability under the action of alkaline phosphatase [3]: relatively stable
formation of dephosphorylated FST under alkaline phosphatase [3]: no dephosphorylated FST was formed
IC50 ([4]; HL-60, 72 h): 10.5 µM

CC(O)(C=CC1CC=CC(=O)O1)C(CC(O)C=CC=CC=CCO)OP(=O)(O)O (stereo not drawn) [FST, Fostriecin]
IC50 [5]: 0.003 µM
IC50 [1, 7]: 14.5 µM
IC50 [6]: 0.0015 µM
IC50 [2, 8]: 10 µM
IC50 [4, 9]: 12 µM
